Measured values: US11345713B2, “Compounds as modulators of TLR2 signaling” (Neuropore Therapies, inc., priority 2018, dated 2022)

Key:
[1] = target: T1, human TLR2 (Pam2CSK4, TLR2/6 agonist) in HEK-Blue hTLR2 cells (Homo sapiens, UniProt O60603); experiment: HEK-Blue hTLR2 antagonism assay (SEAP reporter) with Pam2CSK4 as agonist; assay type: cell-based; settings: 2 h compound pre-incubation, approx. 3×EC50 Pam2CSK4, 18 h, SEAP OD 655 nm, background subtracted
T1 construct: host or cells: HEK-Blue hTLR2 (HEK-293)
T1 sequence (O60603 19-784 limits assumed): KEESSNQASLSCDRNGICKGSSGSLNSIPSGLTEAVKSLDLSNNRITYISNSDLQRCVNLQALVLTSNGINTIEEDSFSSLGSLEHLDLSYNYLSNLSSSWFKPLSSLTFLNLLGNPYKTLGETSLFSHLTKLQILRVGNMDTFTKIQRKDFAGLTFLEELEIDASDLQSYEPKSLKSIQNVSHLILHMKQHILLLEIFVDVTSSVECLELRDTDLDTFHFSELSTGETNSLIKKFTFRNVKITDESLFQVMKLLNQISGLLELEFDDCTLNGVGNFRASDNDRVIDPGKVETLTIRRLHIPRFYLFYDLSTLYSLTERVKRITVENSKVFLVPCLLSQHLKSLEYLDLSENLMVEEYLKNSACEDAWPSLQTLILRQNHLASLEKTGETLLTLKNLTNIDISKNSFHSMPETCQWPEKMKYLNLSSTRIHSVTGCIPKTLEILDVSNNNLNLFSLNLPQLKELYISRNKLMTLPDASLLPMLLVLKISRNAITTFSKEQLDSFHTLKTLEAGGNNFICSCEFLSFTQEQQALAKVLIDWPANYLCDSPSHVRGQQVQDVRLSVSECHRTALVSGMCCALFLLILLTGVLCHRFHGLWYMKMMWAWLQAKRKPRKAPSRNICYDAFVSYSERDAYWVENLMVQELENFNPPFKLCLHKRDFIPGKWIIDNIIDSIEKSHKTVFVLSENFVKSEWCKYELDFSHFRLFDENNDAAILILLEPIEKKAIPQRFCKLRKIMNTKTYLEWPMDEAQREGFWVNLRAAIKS
Protocol: (§1) Synthetic diacylated lipoprotein (Pam2CSK4, TLR2/6 agonist) and synthetic triacylated lipoprotein (Pam3CSK4, TLR1/2 agonist) were obtained from InvivoGen and were dissolved in endotoxin-free water to a concentration 1 mg/mL, vortexed until complete solubilization, and stored in aliquots at −20° C. Prior to addition to cells, an aliquot of the dissolved ligand was vortexed shortly and then was diluted in medium to 25 ng/mL Pam2CSK4 or 1000 ng/mL Pam3CSK4. The EC50 of the agonists for each assay run was determined by using 3-fold dilutions of each agonist from the following starting concentrations: 5 ng/mL for Pam2CSK4, and 200 ng/mL for Pam3CSK4.
(§2) Test compounds were solubilized fresh to 10-20 mM stocks in DMSO and sonicated for 5-10 minutes in a water bath sonicator. Serial dilutions were prepared in DMSO, and then diluted in medium. The final concentration of DMSO used in the assay was 1%.
(§3) HEK-Blue hTLR2 reporter cells (InvivoGen) are HEK-293 cells stably expressing both the human TLR2 gene and a secreted embryonic alkaline phosphatase (SEAP) reporter construct downstream of NFκB promotor sites. HEK-Blue hTLR2 reporters were cultured according to manufacturer's protocol using Dulbecco's Modified Eagle Medium (DMEM; Gibco) containing 1× GlutaMax (Gibco), 10% heat-inactivated Fetal Bovine Serum (Gibco), Pen-Strep (50 U/mL penicillin, 50 μg/mL streptomycin, Gibco), 100 μg/mL Normocin (InvivoGen), and the selective antibiotic, 1× HEK-Blue Selection (InvivoGen). Quanti-Blue reagent (InvivoGen) for detection and quantification of secreted alkaline phosphatase was dissolved in 100 mL of endotoxin-free water, warmed to 37° C. for 30 minutes and then filtered using a 0.2 μm membrane.
(§4) On day 1, 50 μL of each test compound dilution in duplicates or a vehicle control was added to each well of a 96-well plate followed by addition of 150 μL of HEK-Blue hTLR2 cell suspension (1×10^5 cells/well) and incubated at 37° C./5% CO2 for 2 h. Next, 50 μL of an approximate 3×EC50 concentration of each agonist (Pam2CSK4 or Pam3CSK4) was added to the wells containing test compounds or the vehicle control. The plates were then incubated at 37° C./5% CO2 for 18 h. For each assay run, non-treated HEK-Blue hTLR2 cells were treated with serial dilutions of agonists to determine EC50 values for the respective run.
(§5) On day 2, secreted alkaline phosphatase (SEAP) activity was detected in cell culture supernatants. In brief, 20 μL was collected from each well and transferred to a 96-well plate. Next, 200 μL of Quanti-Blue detection reagent was added to each well. Plates were incubated at room temperature for 15 min and SEAP activity was assessed by spectrophotometer OD reading at 655 nm. […] The activities of the compounds against Pam2CSK4 and Pam3CSK4 are presented as IC50 values for the response from cells treated with agonists with the background signal subtracted.

[2] = target: T2, human TLR2 (Pam3CSK4, TLR1/2 agonist) in HEK-Blue hTLR2 cells (Homo sapiens, UniProt O60603); experiment: HEK-Blue hTLR2 antagonism assay (SEAP reporter) with Pam3CSK4 as agonist; assay type: cell-based; settings: 2 h compound pre-incubation, approx. 3×EC50 Pam3CSK4, 18 h, SEAP OD 655 nm, background subtracted
T2 construct: host or cells: HEK-Blue hTLR2 (HEK-293)
T2 sequence (O60603 19-784 limits assumed): as above
Protocol: as §1, §2, §3, §4, §5

Compound	IC50 [1] [µM]	IC50 [2] [µM]
O=Cc1cc(/C=C/c2cccc(C(F)(F)F)c2)cc(F)c1O [compound 11, (E)-3-fluoro-2-hydroxy-5-(3-(trifluoromethyl)styryl)benzaldehyde]	1.1	1
O=Cc1cc(/C=C/c2cccc(N3CCOCC3)c2)cc(F)c1O [compound 45, (E)-3-fluoro-2-hydroxy-5-(3-morpholinostyryl)benzaldehyde]	5	6.7
O=Cc1cc(/C=C/c2ccc(N3CCCC3)cc2)cc(F)c1O [Example 49b, (E)-3-fluoro-2-hydroxy-5-(4-(pyrrolidin-1-yl)styryl)benzaldehyde]	0.8	0.8
COc1cc(/C=C/c2ccc3ncccc3c2)cc(C=O)c1O [compound 58, (E)-2-hydroxy-3-methoxy-5-(2-(quinolin-6-yl)vinyl)benzaldehyde]	4.9	5
COc1cc(-c2cc3c(s2)CCN(C(=O)C2CC2)C3)cc(C=O)c1O [compound 14, 5-(5-(cyclopropanecarbonyl)-4,5,6,7-tetrahydrothieno[3,2-c]pyridin-2-yl)-2-hydroxy-3-methoxybenzaldehyde]	5.7	4.2
O=Cc1cc(/C=C/c2ccc(N3CCOCC3)cc2)cc(F)c1O [compound 42, (E)-3-fluoro-2-hydroxy-5-(4-morpholinostyryl)benzaldehyde]	3.4	4.5
COCCOc1ccc(/C=C/c2cc(C=O)c(O)c(OC)c2)cc1 [compound 54, (E)-2-hydroxy-3-methoxy-5-(4-(2-methoxyethoxy)styryl)benzaldehyde]	4	4.6
O=Cc1cc(/C=C/c2ccccn2)cc(F)c1O [compound 28, (E)-3-fluoro-2-hydroxy-5-(2-(pyridin-2-yl)vinyl)benzaldehyde]	19.5	29.4
COc1cc(/C=C/c2cc(F)cc(F)c2)cc(C=O)c1O [compound 5, (E)-5-(3,5-difluorostyryl)-2-hydroxy-3-methoxybenzaldehyde]	4	3.2
CN1CCCc2cc(/C=C/c3cc(F)c(O)c(C=O)c3)ccc21 [compound 62, (E)-3-fluoro-2-hydroxy-5-(2-(1-methyl-1,2,3,4-tetrahydroquinolin-6-yl)vinyl)benzaldehyde]	1.5	0.8
O=Cc1cc(/C=C/c2ccc(-n3cccn3)cc2)cc(F)c1O [compound 57, (E)-5-(4-(1H-pyrazol-1-yl)styryl)-3-fluoro-2-hydroxybenzaldehyde]	1.7	1.9
COc1cc(/C=C/c2cccc(C(F)(F)F)c2)cc(C=O)c1O [compound 2, (E)-2-hydroxy-3-methoxy-5-(3-(trifluoromethyl)styryl)benzaldehyde]	5.3	1.4
CC(=O)N1CCc2sc(-c3cc(F)c(O)c(C=O)c3)cc2C1 [compound 19, 5-(5-acetyl-4,5,6,7-tetrahydrothieno[3,2-c]pyridin-2-yl)-3-fluoro-2-hydroxybenzaldehyde]	26.7	38.1
COc1cc(/C=C/C2CCN(C(=O)OC(C)(C)C)CC2)cc(C=O)c1O [compound 27, tert-butyl (E)-4-(3-formyl-4-hydroxy-5-methoxystyryl)piperidine-1-carboxylate]	4.4	7.7
COc1cc(/C=C/c2ccc(N3CCCCC3)cc2)cc(C=O)c1O [compound 69, (E)-2-hydroxy-3-methoxy-5-(4-(piperidin-1-yl)styryl)benzaldehyde]	0.7	0.6
COc1cc(/C=C/c2ccc3c(c2)CCCN3C(=O)OC(C)(C)C)cc(C=O)c1O [compound 60, tert-butyl (E)-6-(3-formyl-4-hydroxy-5-methoxystyryl)-3,4-dihydroquinoline-1(2H)-carboxylate]	2.3	0.9
COc1cc(/C=C/c2ccncc2)cc(C=O)c1O [compound 25, (E)-2-hydroxy-3-methoxy-5-(2-(pyridin-4-yl)vinyl)benzaldehyde]	15.2	16.4
COc1cc(/C=C/c2ccc3ccccc3c2)cc(C=O)c1O [compound 32, (E)-2-hydroxy-3-methoxy-5-(2-(naphthalen-2-yl)vinyl)benzaldehyde]	1.1	1
COc1cc(-c2cc3c(s2)CCN(C(=O)OC(C)(C)C)C3)cc(C=O)c1O [compound 12, tert-butyl 2-(3-formyl-4-hydroxy-5-methoxyphenyl)-6,7-dihydrothieno[3,2-c]pyridine-5(4H)-carboxylate]	1.4	1.3
O=Cc1cc(/C=C/c2ccccn2)ccc1O [compound 24, (E)-2-hydroxy-5-(2-(pyridin-2-yl)vinyl)benzaldehyde]	> 100	> 100
Cc1ccc(/C=C/c2ccc(O)c(C=O)c2)cn1 [compound 21, (E)-2-hydroxy-5-(2-(6-methylpyridin-3-yl)vinyl)benzaldehyde]	40	57.3
O=Cc1cc(/C=C/c2ccncc2)cc(F)c1O [compound 30, (E)-3-fluoro-2-hydroxy-5-(2-(pyridin-4-yl)vinyl)benzaldehyde]	20.6	18.8

The next lines start with the values.

IC50 [1] [µM]	IC50 [2] [µM]	Compound
4.4	3.6	CC(C)(C)OC(=O)N1CCN(/N=C/c2cc(/C=C/c3ccc(N4CCCC4)cc3)cc(F)c2O)CC1 [compound 95, tert-butyl 4-(((E)-3-fluoro-2-hydroxy-5-((E)-4-(pyrrolidin-1-yl)styryl)benzylidene)amino)piperazine-1-carboxylate]
8.2	11.2	CCN1CCN(c2ccc(/C=C/c3cc(O)c(C=O)c(F)c3)cc2)CC1 [compound 72, (E)-4-(4-(4-ethylpiperazin-1-yl)styryl)-2-fluoro-6-hydroxybenzaldehyde]
1.2	1.3	Oc1c(F)cc(/C=C/c2ccc(N3CCCC3)cc2)cc1C1OCCCO1 [compound 75, (E)-2-(1,3-dioxan-2-yl)-6-fluoro-4-(4-(pyrrolidin-1-yl)styryl)phenol]
2.9	1.4	Oc1c(F)cc(/C=C/c2ccc(N3CCCC3)cc2)cc1/C=N/N1CCOCC1 [compound 94, 2-fluoro-6-((E)-(morpholinoimino)methyl)-4-((E)-4-(pyrrolidin-1-yl)styryl)phenol]
1.4	1.1	CC(=O)N/N=C/c1cc(/C=C/c2ccc(N3CCCC3)cc2)cc(F)c1O [compound 77, N′-((E)-3-fluoro-2-hydroxy-5-((E)-4-(pyrrolidin-1-yl)styryl)benzylidene)acetohydrazide]
3.8	4.1	O=Cc1cc(/C=C/c2ccc(N3CCCC3)nc2)cc(F)c1O [compound 86, (E)-3-fluoro-2-hydroxy-5-(2-(6-(pyrrolidin-1-yl)pyridin-3-yl)vinyl)benzaldehyde]
3.2	1.3	Oc1c(F)cc(/C=C/c2ccc(N3CCCC3)cc2)cc1/C=N/N1CCNCC1 [compound 96]
4.5	1.9	C[N+]1([O-])CCN(/N=C/c2cc(/C=C/c3ccc(N4CCCC4)cc3)cc(F)c2O)CC1 [compound 85, 4-(((E)-3-fluoro-2-hydroxy-5-((E)-4-(pyrrolidin-1-yl)styryl)benzylidene)amino)-1-methylpiperazine 1-oxide]
4.4	6	Oc1c(F)cc(/C=C/c2ccc(N3CCCC3)cc2)cc1/C=N/Nc1ccccc1 [compound 79, 2-fluoro-6-((E)-(2-phenylhydrazono)methyl)-4-((E)-4-(pyrrolidin-1-yl)styryl)phenol]
2.1	2.1	Oc1c(F)cc(/C=C/c2ccc(N3CCCC3)cc2)cc1/C=N/Oc1ccccc1 [compound 82, (E)-3-fluoro-2-hydroxy-5-((E)-4-(pyrrolidin-1-yl)styryl)benzaldehyde O-phenyl oxime]
